These results are taken from publication PMC11881906, “Development of xanthone derivatives as effective broad-spectrum antimicrobials: Disrupting cell wall and inhibiting DNA synthesis” (Science Advances, 2025).

The subject of data set [1] is P. aeruginosa ATCC 9027. Put plainly: Serial passage resistance induction. The format is cell-based, Pseudomonas aeruginosa. The note with it: 20-day passages at 0.5× MIC. As to the method:
(§1) The bacteria were grown in a medium containing 0.5× MIC of each compound to prepare the bacterial suspension for the next MIC determination. The MICs were then recorded after incubation at 37°C for 24 hours. Daily passages were continued until the initial MIC increased by more than fourfold. The stability of acquired resistance was investigated by MIC determination and repeated for 20 days.

Data set [2] relates to E. coli ATCC 25922. Put plainly: RNA-seq transcriptome response. The format is cell-based, Escherichia coli. The note with it: 4× MIC, 2 hours. As to the method: After exposure, 1-ml aliquots of cells were immediately pelleted at 4°C by centrifugation for 2 min at 2000 rpm. The supernatants were removed and immediately frozen in liquid nitrogen. The samples were stored at −80°C for later total RNA isolation. Total RNA was extracted using the bacterial RNA kit (Omega Bio-Tek, USA) according to the manufacturer’s instructions. The RNA integrity number values were obtained to assess RNA quality using an Agilent Genomics 2200 Tape Station instrument.
A total amount of 2 to 5 ng of the RNA per sample was executed as the input material to construct each cDNA library for RNA-seq using the NEBNext Ultra Directional RNA Library prep kit from Illumina. The quality of the resulting libraries was checked using Agilent High Sensitivity DNA chips to ensure proper library size distribution and the absence of small adapters.
Read mapping was aligned using Bowtie2 ([74]). HTSeq v0.6.1 was used for quantification of expression levels ([75]). DESeq2 on the R package (v1.12.4) was used to calculate DEGs. Differential expression was computed using edgeR: exactTest for each treatment versus the untreated control ([76]). The E. coli database used for mapping was GCF_017357505.1_ASM1735750v1_genomic.fna. Both the GO and KEGG (KEGG Ortholog database) enrichment analyses were done with the Fisher’s exact test. All P values were adjusted with the Benjamini-Hochberg procedure to generate false discovery rates (adjusted P values). GO enrichment analysis was carried out using the clusterProfiler package on the R platform ([77]). KEGG pathway mapping and figure generation were performed with the PathView website ([78]). COG of protein databases were searched with an E value of 1e^-5. For hierarchal clustering analysis of gene expression, the gene expression levels were normalized to z scores of log10 (FPKM + 1), where FPKM is fragments per kilobase per million. For hierarchal clustering analysis of the regulation of transcription factors, the unweighted pair group method with arithmetic mean (UPGMA) method was used as the clustering method. […] Volcano plots were generated by plot_volcano from soothsayer (https://github.com/jolespin/soothsayer) in Python v.3.6.6. Directed networks were constructed and plotted using NetworkX and Matplotlib Python packages, respectively. Hierarchical clustering analysis and heatmap calculation were performed with the pheatmap package on the R platform. The umap package on the R platform was used for uniform manifold approximation and projection (UMAP) analysis of FPKM vectors of each transcriptome. The figures were created via the ggplot2 package ([79]).

Data set [3] concerns E. coli ATCC 25922. Put plainly: MIC, broth microdilution. The format is cell-based, Escherichia coli. The note with it: Escherichia coli, ATCC25922, 24 h, 24-hour incubation, MHB; read-out: MIC90 E. coli ATCC 25922. The method, then: (§2) MIC was determined using the broth microdilution method in accordance with Clinical and Laboratory Standards Institute guidelines. All compounds were dissolved in dimethyl sulfoxide (DMSO; final DMSO concentration of less than 0.5%) and sterile double-distilled water and then diluted with Mueller-Hinton broth (MHB). Each compound’s stock solution was serially twofold diluted, resulting in concentrations ranging from 0.39 to 100 μg/ml, and thereafter added to sterile 96-well plates. All bacterial cell suspensions were adjusted in MHB to attain a starting inoculum of 1 × 10^6 cells/ml. A total of 100 μl volume of the bacterial suspension was then added to each well. Following a 24-hour incubation at 37°C, the optical density at 600 nm (OD600) was confirmed by measuring absorbance at 600 nm with a BioTek microplate reader. […] All measurements were repeated three times with duplicates each time.

Data set [4] concerns rabbit erythrocytes. Put plainly: Hemolysis assay. Type of data set: cell-based. The note with it: concentration causing 50% hemolysis of red blood cells; 1 hour, 37°C. The method, then:
The hemolytic activity of antimicrobial agents was investigated as previously described ([70]). Briefly, the rabbit erythrocytes were centrifuged at 2500 rpm for 3 min before being washed twice with sterile phosphate-buffered saline (PBS) (pH 7.4). Subsequently, the erythrocytes were diluted with PBS to a final concentration of 8% (v/v). The DMSO-dissolved compounds were twofold serially diluted in PBS to achieve a final concentration with DMSO less than 0.5%. […] Sterile PBS and 0.2% Triton X-100 were used as negative and positive controls, respectively. After 1 hour of incubation at 37°C, the tested samples were centrifuged at 2500 rpm for 5 min, and aliquots of the supernatant were added to 96-well microplates. The hemoglobin release was determined by measuring the absorbance at 576 nm using a BioTek multimode reader. The percentage of hemolytic activity was calculated using the following formula: Hemolysis rate (%) = [OD576 (compound) − OD576 (PBS)]/[OD576 (Triton X-100) − OD576 (PBS)] × 100. All measurements were repeated three times with duplicates each time.

For data set [5] the following is noted: for the free thiomorpholine group, not the whole compound; cited from earlier work.
Data set [6] relates to tested strains (Gram-positive and Gram-negative bacteria). Description: MIC, summary over the tested strains. The format is cell-based. The note with it: 24 h, read-out: MICs against the tested strains. As to the method:
as §2

For data set [7], the system named is MRSA NCTC 10442. Put plainly: MIC, broth microdilution. The format is cell-based. The note with it: Staphylococcus aureus; 24-hour incubation, MHB; read-out: MIC90 MRSA NCTC 10442. The method, then:
as §2
(Dilution methods test growth across graded concentrations, often in twofold steps.)

Data set [8] has as its system S. aureus ATCC 29213. Description: MIC, broth microdilution. The format is cell-based. The note with it: Staphylococcus aureus, ATCC29213, 24 h, 24-hour incubation, MHB; read-out: MIC90 S. aureus ATCC 29213. As to the method: as §2
The subject of data set [9] is MRSA N315. Put plainly: MIC, broth microdilution. Type of data set: cell-based. The note with it: Staphylococcus aureus, 24-hour incubation, MHB, read-out: MIC90 MRSA N315. The method, then:
as §2

Data set [10] concerns Gram-negative bacteria. Put plainly: MIC, Gram-negative strains. Type of data set: cell-based. The note with it: read-out: MICs against Gram-negative bacteria. The method, then:
as §2

The subject of data set [11] is Gram-positive bacteria. Put plainly: MIC, summary over Gram-positive strains. Type of data set: cell-based. The note with it: read-out: MICs against Gram-positive bacteria, three Gram-positive strains. The method, then:
as §2

Data set [12] has as its system S. aureus ATCC 29213. Description: Serial passage resistance induction. The format is cell-based, Staphylococcus aureus. The note with it: 20-day passages at 0.5× MIC. As to the method: as §1

In brackets after ≈: the same amount, converted by molar mass.

Turning to `O=C(O)c1cn(C2CC2)c2cc(N3CCNCC3)c(F)cc2c1=O` [CPF, ciprofloxacin, reference compound], the “increase in MIC values during passages” value in data set [1] is on record as approximately 64 fold. The molecule also showed a genes expressed in data set [2] of 4682 genes. For the same molecule, in data set [2] (vs untreated), the “Log2FC dnaE (DNA polymerase III subunit alpha)” value was 1.7739, the “Log2FC dnaN (DNA polymerase III subunit beta)” value was determined as 3.0865, the “Log2FC dnaQ (DNA polymerase III subunit epsilon)” value turned out to be 1.3670 and the “Log2FC dnaT (primosomal protein DnaT)” value was determined as 2.2444. For the same molecule, in data set [2] (vs untreated), the “Log2FC dnaX (DNA polymerase III subunit gamma/tau)” value is 1.7268, the “Log2FC gyrA (DNA topoisomerase (ATP-hydrolyzing) subunit A)” value came to 2.2544, the “Log2FC gyrB (DNA topoisomerase (ATP-hydrolyzing) subunit B)” value is 2.4048 and the “Log2FC holB (DNA polymerase III subunit delta')” value was determined as 1.9890. In data set [2] (vs untreated), the “Log2FC holD (DNA polymerase III subunit psi)” value was found to be 2.4551, the “Log2FC parC (DNA topoisomerase IV subunit A)” value is 1.5215, the “Log2FC parE (DNA topoisomerase IV subunit B)” value was 2.4557 and the “Log2FC priA (primosomal protein N')” value stood at 2.8529. In [2] (vs untreated), the “Log2FC priB (primosomal replication protein N)” value amounted to 3.5288, the “Log2FC priC (primosomal replication protein N'')” value turned out to be 1.7101, the “Log2FC recA (recombinase RecA)” value was found to be 6.2751 and the “Log2FC recF (DNA replication/repair protein RecF)” value is 2.2046. In data set [2] (vs untreated), the “Log2FC recG (ATP-dependent DNA helicase RecG)” value is reported as 1.1384, the “Log2FC recJ (single-stranded-DNA-specific exonuclease RecJ)” value is reported as 1.9882, the “Log2FC recO (DNA repair protein RecO)” value worked out at 1.9736 and the “Log2FC recR (recombination mediator RecR)” value was found to be 1.8874. In [2] (vs untreated), the “Log2FC ruvA (Holliday junction branch migration protein RuvA)” value came to 2.8598, the “Log2FC ruvB (Holliday junction branch migration DNA helicase RuvB)” value turned out to be 3.4475, the “Log2FC ruvC (crossover junction endodeoxyribonuclease RuvC)” value is 1.8052 and the “Log2FC ssb1 (single-stranded DNA-binding protein SSB1)” value is 2.6468. In data set [2] (vs untreated), this molecule yielded a down-regulated genes of 130 genes and an up-regulated genes of 2246 genes. Moreover, in [2] (vs untreated, P < 0.05, absolute log2 fold change > 1), the differentially expressed genes worked out at 2376 genes.

Usually MIC90 stands for an inhibitory concentration at the 90% level, which refers to growth in some studies and to a panel of isolates in others. As usually defined, the HC50 is the concentration giving 50% haemolysis. A high value points to less damage to red cells. Usually pKa stands for the negative logarithm of the acid dissociation constant. As to `CC(C)=CCOc1cc(OCCCN2CCSCC2)cc2oc3cc(OCCCN4CCSCC4)ccc3c(=O)c12` [XT11], the MIC90 in data set [3], in [7], in [8] and in data set [9] was more than 50 µg/mL each time. The molecule also yielded an HC50 in [4] of more than 200 µg/mL. Further, the pKa in data set [5] is given as 9.0. The MIC in data set [6] is more than 50 µg/mL.

Regarding `COc1cc(OCCCNC(=N)N)cc2oc3cc(OCCCNC(=N)N)ccc3c(=O)c12` [XT19], the MIC90 came to 100 µg/mL (≈ 219 µM) in data set [3], 6.25 µg/mL (≈ 13.7 µM) in [7], 6.25 µg/mL (≈ 13.7 µM) in data set [8] and 12.5 µg/mL (≈ 27.4 µM) in [9]. The results for the MIC in data set [10] and in [11] were 100 µg/mL (≈ 219 µM) and 6.25 to 12.5 µg/mL (≈ 13.7 to 27.4 µM), respectively. Besides, in data set [4], the HC50 was more than 200 µg/mL.

In the case of `CCn1cc(C(=O)O)c(=O)c2cc(F)c(N3CCNCC3)cc21` [norfloxacin, reference compound], in data set [12], the “increase in MIC values during passages” value is reported as “approximately 16 fold”.
